The record followed here is patent US20120214862A1, “MODULATION OF FACTOR 7 EXPRESSION” (ISIS Pharmaceuticals, Inc., priority 2009, published 2012).

In the oligonucleotide strings, read from the 5' end, every base follows the letter of its sugar. An asterisk marks phosphorothioate; unmarked linkages are phosphodiester. Other units and linkages are bracketed, terminal groups are in braces. A string of capitals states the bases alone. e = 2'-O-(2-methoxyethyl) (MOE); [5mC] = 5-methylcytosine; d = 2'-deoxy (DNA)

Common to all, as to format: cell-based
For data set [1], the system named is human Factor 7 mRNA. Briefly: Dose-dependent antisense inhibition of human Factor 7 in HepB3 cells, transfection with electroporation. As to the method: (§1) The gapmers were also transfected via electroporation and their dose-dependent inhibition of human Factor 7 mRNA was measured. Cells were plated at a density of 20,000 cells per well and transfected via electroporation with 3.125 μM, 6.25 μM, 12.5 μM, 25 μM, 50 μM, and 100 μM concentrations of antisense oligonucleotide, as specified in Table 15. After a treatment period of approximately 16 hours, RNA was isolated from the cells and Factor 7 mRNA levels were measured by quantitative real-time PCR. Human Factor 7 primer probe set RTS 2927 was used to measure mRNA levels. Factor 7 mRNA levels were adjusted according to total RNA content, as measured by RIBOGREEN®. Results are presented as percent inhibition of Factor 7, relative to untreated control cells.
as §1, with “Cells were” for “The gapmers were also transfected via electroporation and their dose-dependent inhibition of human Factor 7 mRNA was measured. Cells were”, “in Table 16. After a” for “in Table 15. After a”, “cells and human Factor 7” for “cells and Factor 7”

In data set [2] the test system is human Factor 7 mRNA. Briefly: Antisense inhibition of human Factor 7 mRNA in HepB3 cells, lipofectin, 50 nM, real-time RT-PCR. As to conditions: HepB3 cells. An outline of the steps: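 HepB3 cells were transfected by lipofectin with 50 nM antisense oligonucleotide and harvested after about 24 h. Factor 7 mRNA was measured by real-time RT-PCR (primer probe set RTS 2927 in some runs), normalized to RIBOGREEN total RNA, and reported as percent inhibition versus untreated control.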
(Real-time PCR tracks product formation cycle by cycle.)

The test system of data set [3] is human Factor 7 mRNA. Briefly: Dose-dependent antisense inhibition of human Factor 7 in HepB3 cells, transfection with lipofectin. As to conditions: lipofectin, HepB3 cells, 16 hours. An outline of the steps:
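HepB3 cells (4,000/well) lipofectin-transfected with antisense oligonucleotide at 3.125 or 6.25 up to 100 nM for ~16 h. Factor 7 mRNA measured by real-time RT-PCR with primer probe set RTS 2927, adjusted to RIBOGREEN total RNA; expressed as percent inhibition versus untreated control cells.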

The mark [4] stands for this setting: 3.125 μM, 16 hours (Example 7, Table 15).
Where [5] appears, read: 6.25 μM, 16 hours (Example 7, Table 15).
Setting [6] is: 12.5 μM, 16 hours (Example 7, Table 15).
Where [7] appears, read: 25 μM, 16 hours (Example 7, Table 15).
Setting [8] is: 50 μM, 16 hours (Example 7, Table 15).
The mark [9] stands for this setting: 100 μM, 16 hours (Example 7, Table 15).
[10] abbreviates: gapmers (5-10-5, 3-14-3, 2-13-5 MOE) targeted to nucleobases 4868 to 4899 of SEQ ID NO: 1.
Where [11] appears, read: 3.125 μM, 16 hours (Example 8, Table 16).
[12] abbreviates: 6.25 μM, 16 hours (Example 8, Table 16).
[13] abbreviates: 12.5 μM, 16 hours (Example 8, Table 16).
The mark [14] stands for this setting: 25 μM, 16 hours (Example 8, Table 16).
Setting [15] is: 50 μM, 16 hours (Example 8, Table 16).
[16] abbreviates: 100 μM, 16 hours (Example 8, Table 16).
The mark [17] stands for this setting: gapmers targeted to nucleobases 15188 to 15211 of SEQ ID NO: 1 (Table 13).

Turning to “422140 (antisense eG*eT*eT*e[5mC]*eT*dG*d[5mC]*dA*dG*dG*dA*dG*d[5mC]*dG*dG*e[5mC]*e[5mC]*eT*eA*eA) [compound 422140]”, the “percent inhibition of Factor 7 mRNA, relative to untreated control cells” value in the data set with human Factor 7 mRNA [1] (setting [4]) came out at 29%; in the data set on human Factor 7 mRNA [1] (setting [5]), 34%; with human Factor 7 mRNA [1] (setting [6]), 51%; in the data set on human Factor 7 mRNA [1] (setting [7]) it was 64%; with human Factor 7 mRNA [1] (setting [8]) it was 69%; in the data set on human Factor 7 mRNA [1] (setting [9]) it was 77%. Further, the “percent inhibition of Factor 7 mRNA, relative to untreated control cells” value with human Factor 7 mRNA [3] (3.125 nM) came out at 18%; in the data set on human Factor 7 mRNA [3] (12.5 nM), 49%; in the data set with human Factor 7 mRNA [3] (25 nM) it was 64%; in the data set with human Factor 7 mRNA [3] (50 nM), 74%; with human Factor 7 mRNA [3] (100 nM), 74%; in the data set on human Factor 7 mRNA [3], 35%. The “% Inhibition of human Factor 7 mRNA levels” value (“% Inhibition” below) with human Factor 7 mRNA [2] (setting [10]) worked out at 74%.
Consider “422215 (antisense eG*eT*eT*d[5mC]*dT*dG*d[5mC]*dA*dG*dG*dA*dG*d[5mC]*dG*dG*d[5mC]*d[5mC]*eT*eA*eA) [compound 422215]”, for which the “percent inhibition of Factor 7 mRNA, relative to untreated control cells” value came to 11% in the data set on human Factor 7 mRNA [1] (setting [4]); 9% in the data set with human Factor 7 mRNA [1] (setting [5]); 31% with human Factor 7 mRNA [1] (setting [6]); 50% in the data set with human Factor 7 mRNA [1] (setting [7]); 68% in the data set on human Factor 7 mRNA [1] (setting [8]); 84% in the data set on human Factor 7 mRNA [1] (setting [9]). For the same substance, the “percent inhibition of Factor 7 mRNA, relative to untreated control cells” value in the data set with human Factor 7 mRNA [3] (3.125 nM) came to 13%; with human Factor 7 mRNA [3] (12.5 nM), 54%; with human Factor 7 mRNA [3] (25 nM) it was 65%; in the data set on human Factor 7 mRNA [3] (50 nM), 84%; with human Factor 7 mRNA [3] (100 nM), 82%; with human Factor 7 mRNA [3], 30%. Besides, the “% Inhibition” value with human Factor 7 mRNA [2] (setting [10]) came out at 73%.
Take “422150 (antisense eG*e[5mC]*eA*dT*dG*dG*dT*dG*dA*dT*dG*d[5mC]*dT*dT*d[5mC]*dT*dG*eA*eA*eT) [compound 422150]”: the “percent inhibition of Factor 7 mRNA, relative to untreated control cells” value with human Factor 7 mRNA [1] (setting [4]) is 17%; in the data set on human Factor 7 mRNA [1] (setting [11]), 0%; in the data set on human Factor 7 mRNA [1] (setting [5]) it was 20%; in the data set on human Factor 7 mRNA [1] (setting [12]), 31%; in the data set on human Factor 7 mRNA [1] (setting [6]), 40%; with human Factor 7 mRNA [1] (setting [13]) it was 53%. Moreover, the “percent inhibition of Factor 7 mRNA, relative to untreated control cells” value with human Factor 7 mRNA [1] (setting [7]) is 54%; in the data set with human Factor 7 mRNA [1] (setting [14]), 67%; with human Factor 7 mRNA [1] (setting [8]), 68%; with human Factor 7 mRNA [1] (setting [15]), 77%; in the data set with human Factor 7 mRNA [1] (setting [9]), 83%; in the data set on human Factor 7 mRNA [1] (setting [16]), 86%. Further, the “percent inhibition of Factor 7 mRNA, relative to untreated control cells” value stood at 9% in the data set on human Factor 7 mRNA [3] (3.125 nM); 38% with human Factor 7 mRNA [3] (12.5 nM); 59% with human Factor 7 mRNA [3] (25 nM); 79% in the data set with human Factor 7 mRNA [3] (50 nM); 87% with human Factor 7 mRNA [3] (100 nM); 23% in the data set on human Factor 7 mRNA [3]. The “% Inhibition” value in the data set on human Factor 7 mRNA [2] (setting [17]) was found to be 74%.
For “422228 (antisense eT*eG*d[5mC]*dA*dT*dG*dG*dT*dG*dA*dT*dG*d[5mC]*dT*dT*e[5mC]*eT*eG*eA*eA) [compound 422228]”, the “percent inhibition of Factor 7 mRNA, relative to untreated control cells” value with human Factor 7 mRNA [1] (setting [4]) turned out to be 18%; in the data set with human Factor 7 mRNA [1] (setting [5]), 33%; in the data set on human Factor 7 mRNA [1] (setting [6]), 40%; with human Factor 7 mRNA [1] (setting [7]), 47%; in the data set on human Factor 7 mRNA [1] (setting [8]) it was 71%; in the data set on human Factor 7 mRNA [1] (setting [9]), 83%. For the same substance, the “percent inhibition of Factor 7 mRNA, relative to untreated control cells” value in the data set with human Factor 7 mRNA [3] (3.125 nM) came out at 17%; with human Factor 7 mRNA [3] (12.5 nM) it was 43%; in the data set with human Factor 7 mRNA [3] (25 nM) it was 60%; in the data set with human Factor 7 mRNA [3] (50 nM), 78%; with human Factor 7 mRNA [3] (100 nM), 90%; with human Factor 7 mRNA [3] it was 25%. In addition, the “% Inhibition” value in the data set with human Factor 7 mRNA [2] (setting [17]) was 73%.
With “422142 (antisense eG*eA*eG*eT*eT*d[5mC]*dT*dG*d[5mC]*dA*dG*dG*dA*dG*d[5mC]*eG*eG*e[5mC]*e[5mC]*eT) [compound 422142]”, the “percent inhibition of Factor 7 mRNA, relative to untreated control cells” value was determined as 26% with human Factor 7 mRNA [1] (setting [4]); 34% in the data set with human Factor 7 mRNA [1] (setting [11]); 47% in the data set with human Factor 7 mRNA [1] (setting [5]); 47% with human Factor 7 mRNA [1] (setting [12]); 63% in the data set on human Factor 7 mRNA [1] (setting [6]); 62% in the data set on human Factor 7 mRNA [1] (setting [13]). In addition, the “percent inhibition of Factor 7 mRNA, relative to untreated control cells” value in the data set on human Factor 7 mRNA [1] (setting [7]) is on record as 67%; in the data set on human Factor 7 mRNA [1] (setting [14]), 67%; in the data set with human Factor 7 mRNA [1] (setting [8]) it was 77%; in the data set on human Factor 7 mRNA [1] (setting [15]), 65%; in the data set with human Factor 7 mRNA [1] (setting [9]) it was 78%; with human Factor 7 mRNA [1] (setting [16]), 65%. Besides, the “percent inhibition of Factor 7 mRNA, relative to untreated control cells” value in the data set on human Factor 7 mRNA [3] (3.125 nM) was 16%; with human Factor 7 mRNA [3] (12.5 nM), 51%; with human Factor 7 mRNA [3] (25 nM), 66%; with human Factor 7 mRNA [3] (50 nM) it was 72%; in the data set with human Factor 7 mRNA [3] (100 nM), 68%; with human Factor 7 mRNA [3], 34%. Further, the “% Inhibition” value in the data set with human Factor 7 mRNA [2] (setting [10]) was 73%.
With “422229 (antisense eA*eT*dG*d[5mC]*dA*dT*dG*dG*dT*dG*dA*dT*dG*d[5mC]*dT*eT*e[5mC]*eT*eG*eA) [compound 422229]”, the “percent inhibition of Factor 7 mRNA, relative to untreated control cells” value was determined as 21% in the data set on human Factor 7 mRNA [1] (setting [4]); 30% in the data set on human Factor 7 mRNA [1] (setting [11]); 30% in the data set with human Factor 7 mRNA [1] (setting [5]); 45% in the data set on human Factor 7 mRNA [1] (setting [12]); 33% in the data set on human Factor 7 mRNA [1] (setting [6]); 67% in the data set on human Factor 7 mRNA [1] (setting [13]). Moreover, the “percent inhibition of Factor 7 mRNA, relative to untreated control cells” value with human Factor 7 mRNA [1] (setting [7]) is 44%; in the data set on human Factor 7 mRNA [1] (setting [14]), 79%; in the data set with human Factor 7 mRNA [1] (setting [8]), 65%; in the data set with human Factor 7 mRNA [1] (setting [15]) it was 90%; in the data set with human Factor 7 mRNA [1] (setting [9]), 77%; in the data set with human Factor 7 mRNA [1] (setting [16]) it was 92%. Besides, the “percent inhibition of Factor 7 mRNA, relative to untreated control cells” value in the data set with human Factor 7 mRNA [3] (3.125 nM) was 21%; in the data set with human Factor 7 mRNA [3] (12.5 nM), 53%; with human Factor 7 mRNA [3] (25 nM), 72%; in the data set on human Factor 7 mRNA [3] (50 nM) it was 86%; with human Factor 7 mRNA [3] (100 nM) it was 92%; in the data set with human Factor 7 mRNA [3] it was 32%. Besides, the “% Inhibition” value in the data set on human Factor 7 mRNA [2] (setting [17]) came to 71%.
